Experimental data from US20250144067A1, “PERSONALIZED STARVATION THERAPY FOR CANCER” (Faeth Therapeutics, Inc., priority 2021, published 2025).
Structures can show the parent of a compound that is named as a salt. Where two headings read alike, the source gives them in different places. Numbered stars: 1 amine (or outer) side, 2 acyl side, 3 side chain; on linkers, the order of the positions; unused ones are H or OH. Bridge positions count the residues as written; N and C are the ends. Peptide text beside a SMILES is read from it. X2 = O=C(CCC[*:2])[*:1]

Tests used:
[1] = system: NCI-H292 lung cancer cells; experiment: FDA drug screening, complete media vs cholesterol-free media without statin (TABLE 1); type: cell-based, human
[2] = system: NCI-H292 lung cancer cells; experiment: FDA drug screening, complete media vs cholesterol-free media with simvastatin (TABLE 2); type: cell-based, human
[3] = NCI-H292 cells, cholesterol-free media without statin, FDA drug library screen
[4] = complete vs cholesterol-free media, […]
[5] = NCI-H292 cells, drug in cholesterol-free media with simvastatin 0.04 μM
[6] = NCI-H292 cells, drug in complete media
[7] = NCI-H292 cells, cholesterol-free media without statin
[8] = complete vs cholesterol-free media, greater than 0 enhanced anti-cancer activity, about 0 neutral, below 0 antagonists
[9] = NCI-H292 cells, cholesterol-free media with simvastatin 0.04 μM, cell growth value in FDA drug screen
[10] = NCI-H292 cells, complete media, cell growth value in FDA drug screen
[11] = complete media minus cholesterol-free media + simvastatin, >0 enhanced anti-cancer activity, about 0 neutral, <0 antagonist
[12] = Complete minus Cholesterol-free, greater than 0 enhanced anti-cancer activity, about 0 neutral, below 0 antagonist
[13] = NCI-H292 cells, FDA drug library screen, cholesterol-free media without statin
[14] = NCI-H292 cells, FDA drug library screen, complete media
[15] = NCI-H292 cells, FDA drug library screen, cholesterol-free media with simvastatin 0.04 μM
[16] = complete media vs cholesterol-free media + simvastatin (0.04 μM), >0 enhanced anti-cancer activity, about 0 neutral, <0 antagonist
[17] = NCI-H292 cells, complete media, FDA drug library screen
[18] = complete vs cholesterol-free media, >0 enhanced anti-cancer activity, about 0 neutral, <0 antagonist
[19] = Complete minus Cholesterol-free, >0 enhanced anti-cancer activity, about 0 neutral, <0 antagonist
[20] = Complete minus Cholesterol-free, greater than 0 enhanced anti-cancer activity, about 0 neutral, below 0 antagonists
[21] = NCI-H292 cells in cholesterol-free media without statin
[22] = NCI-H292 cells in complete media
[23] = NCI-H292 cells, cholesterol-free media with simvastatin 0.04 μM, FDA drug library screen (TABLE 2)
[24] = NCI-H292 cells, complete media, FDA drug library screen (TABLE 2)
[25] = complete media minus cholesterol-free media + simvastatin (0.04 μM), >0 enhanced anti-cancer activity, about 0 neutral, <0 antagonist
[26] = NCI-H292 cells, FDA library drug in cholesterol-free media with simvastatin 0.04 μM
[27] = NCI-H292 cells, FDA library drug in complete media
[28] = NCI-H292 cells, cholesterol-free media with simvastatin 0.04 μM, […]
[29] = NCI-H292 cells, complete media, […]
[30] = complete media minus cholesterol-free media + simvastatin, […]
[31] = Complete minus Cholesterol-free, […]

Compound: Cc1ncc(COP(=O)(O)O)c(C)c1O [4-Deoxypyridoxine 5′-phosphate]
- Cholesterol-free [1, 3]: 0.7389
- Difference [1, 4]: 0.41
- Cholesterol-free media + simvastatin (0.04 μM) [2, 5]: 1.284
- Complete Media [2, 6]: 1.065
- Difference ([2]; complete media vs cholesterol-free media + simvastatin (0.04 μM), […]): −0.22

Compound: CCCCCCCCc1ccc(CCC(N)(CO)CO)cc1 [Fingolimod (hydrochloride)]
- Cholesterol-free [1, 7]: 1.335
- Complete ([1]; NCI-H292 cells, complete media): 0.8744
- Difference [1, 8]: −0.46
- Cholesterol-free media + simvastatin (0.04 μM) [2, 9]: 0.9867
- Complete Media [2, 10]: 1.023
- Difference [2, 11]: 0.04

Compound: COC(=O)/C=C/C(=O)OC [Dimethyl fumarate]
- Difference [1, 12]: −0.13
- Cholesterol-free [1, 13]: 0.8617
- Complete [1, 14]: 0.7326
- Cholesterol-free media + simvastatin (0.04 μM) [2, 15]: 0.991
- Complete Media [2, 14]: 0.9095
- Difference [2, 16]: −0.08

Compound: CN1CCC(=C2c3ccccc3C=Cc3ccccc32)CC1 [Cyproheptadine (hydrochloride)]
- Cholesterol-free [1, 3]: 0.9826
- Complete [1, 17]: 1.57
- Difference [1, 18]: 0.59
- Cholesterol-free media + simvastatin (0.04 μM) [2, 15]: 0.6096
- Complete Media [2, 14]: 0.7817
- Difference [2, 11]: 0.17

Compound: Nc1ccc(/N=N/c2ccccc2)c(N)n1 [Phenazopyridine (hydrochloride)]
- Difference [1, 19]: −0.06
- Cholesterol-free [1, 3]: 1.194
- Complete [1, 17]: 1.131
- Cholesterol-free media + simvastatin (0.04 μM) [2, 15]: 1.284
- Complete Media [2, 14]: 1.801
- Difference [2, 11]: 0.52

Compound: Sildenafil (citrate)
- Difference [1, 20]: −0.63
- Cholesterol-free [1, 21]: 1.504
- Complete [1, 22]: 0.8696
- Cholesterol-free media + simvastatin (0.04 μM) [2, 23]: 0.9766
- Complete Media [2, 24]: 0.9106
- Difference [2, 25]: −0.07

Compound: Cc1ncc([N+](=O)[O-])n1CCOC(=O)c1ccccc1 [Metronidazole Benzoate]
- Difference [1, 19]: −0.30
- Cholesterol-free [1, 7]: 1.298
- Complete ([1]; NCI-H292 cells, complete media): 1.001
- Cholesterol-free media + simvastatin (0.04 μM) [2, 15]: 1.104
- Complete Media [2, 14]: 1
- Difference [2, 16]: −0.10

Compound: Tamoxifen (Citrate)
- Cholesterol-free [1]: 0.4962
- Complete [1]: 0.576
- Difference [1]: 0.08
- Cholesterol-free media + simvastatin (0.04 μM) [2]: 0.9205
- Complete Media [2]: 0.7671
- Difference [2]: −0.15

Compound: COC(=O)C1=C(C)NC(C)=C(C(=O)OC(C)(C)CN(C)CCC(c2ccccc2)c2ccccc2)C1c1cccc([N+](=O)[O-])c1 (stereo not shown) [Lercanidipine (hydrochloride)]
- Difference [1, 12]: −0.18
- Cholesterol-free [1, 13]: 0.8895
- Complete [1, 14]: 0.7061
- Cholesterol-free media + simvastatin (0.04 μM) [2, 9]: 0.8086
- Complete Media [2, 10]: 0.8565
- Difference [2, 11]: 0.05

Compound: CCc1nn(CCCN2CCN(c3cccc(Cl)c3)CC2)c(=O)n1CCOc1ccccc1 [Nefazodone (hydrochloride)]
- Cholesterol-free [1, 3]: 0.8256
- Complete [1, 17]: 1.655
- Difference [1, 18]: 0.83
- Cholesterol-free media + simvastatin (0.04 μM) [2, 26]: 1.025
- Complete Media [2, 27]: 0.2752
- Difference [2, 16]: −0.75

Compound: O=C1CC[C@@H](C(=O)N2CSC[C@H]2C(=O)O)N1 [Pidotimod] (HELM PEPTIDE1{[Glp].[O=C(O)[C@@H]1CSCN1[*:1]]}$$$$V2.0)
- Cholesterol-free [1, 7]: 1.383
- Complete ([1]; NCI-H292 cells, complete media): 0.9708
- Difference [1, 8]: −0.41
- Cholesterol-free media + simvastatin (0.04 μM) [2, 23]: 1.016
- Complete Media [2, 24]: 1.03
- Difference [2, 25]: 0.01

Compound: Capreomycin (sulfate)
- Cholesterol-free [1, 7]: 1.728
- Complete ([1]; NCI-H292 cells, complete media): 1.371
- Difference [1, 4]: −0.36
- Cholesterol-free media + simvastatin (0.04 μM) [2, 28]: 0.9008
- Complete Media [2, 29]: 0.9756
- Difference [2, 30]: 0.07

Compound: C[C@]12CCC3=C4CCC(=O)C=C4CC[C@H]3[C@@H]1CC[C@@]2(O)CC#N [Dienogest]
- Cholesterol-free [1, 7]: 1.387
- Complete ([1]; NCI-H292 cells, complete media): 1.069
- Difference [1, 8]: −0.32
- Cholesterol-free media + simvastatin (0.04 μM) [2, 5]: 0.9182
- Complete Media [2, 6]: 0.7086
- Difference [2, 16]: −0.21

Compound: CCc1cc(C(N)=S)ccn1 [Ethionamide]
- Difference [1, 20]: −0.66
- Cholesterol-free [1, 21]: 1.516
- Complete [1, 22]: 0.857
- Cholesterol-free media + simvastatin (0.04 μM) [2, 23]: 1.611
- Complete Media [2, 24]: 1.611
- Difference [2, 25]: 0.00

Compound: CCCOc1ccc(S(=O)(=O)N2CCN(CCO)CC2)cc1-c1nc2c(CCC)cn(CC)c2c(=O)[nH]1 [Mirodenafil (dihydrochloride)]
- Difference [1, 19]: −0.27
- Cholesterol-free [1, 7]: 1.435
- Cholesterol-free media + simvastatin (0.04 μM) [2, 15]: 0.7461
- Complete Media [2, 14]: 0.9273
- Difference [2, 11]: 0.18

Compound: CCC[C@@H]1C[C@@H](C(=O)N[C@@H]([C@H]2O[C@H](SC)[C@H](O)[C@@H](O)[C@H]2O)[C@@H](C)O)N(C)C1 [Lincomycin (hydrochloride monohydrate)]
- Cholesterol-free [1, 7]: 1.114
- Complete ([1]; NCI-H292 cells, complete media): 0.7781
- Difference [1, 8]: −0.34
- Cholesterol-free media + simvastatin (0.04 μM) [2, 9]: 0.819
- Complete Media [2, 10]: 0.8378
- Difference [2, 11]: 0.02

Compound: CCCOc1ccc2c(c1)CC[C@@H]1[C@@H]2CC[C@]2(C)[C@@H](OC)CC[C@@H]12 [Promestriene]
- Difference [1, 31]: −0.77
- Cholesterol-free [1, 21]: 1.741
- Complete [1, 22]: 0.9695
- Cholesterol-free media + simvastatin (0.04 μM) [2, 28]: 0.8092
- Complete Media [2, 29]: 0.9277
- Difference [2, 30]: 0.12

Compound: CC[C@H](C)[C@@H]1NC(=O)[C@H](Cc2ccc(OC)cc2)NC(=O)CCCSC[C@@H](C(=O)N2CCC[C@H]2C(=O)N[C@@H](CC(C)C)C(=O)NCC(N)=O)NC(=O)[C@H](CC(N)=O)NC(=O)[C@H](CCC(N)=O)NC1=O [Carbetocin] (Y(Me)IQNCPLG-NH2; linker N-5 via X2)
- Difference [1, 31]: −0.26
- Cholesterol-free [1, 7]: 1.283
- Complete ([1]; NCI-H292 cells, complete media): 1.021
- Cholesterol-free media + simvastatin (0.04 μM) [2, 15]: 1.6
- Complete Media [2, 14]: 1.76
- Difference [2, 30]: 0.16

Compound: CCCCN1CCCCC1C(=O)Nc1c(C)cccc1C (stereo not shown) [Bupivacaine (hydrochloride)]
- Difference [1, 12]: −0.15
- Cholesterol-free [1, 13]: 1.158
- Complete [1, 14]: 1.01
- Cholesterol-free media + simvastatin (0.04 μM) [2, 5]: 1.059
- Complete Media [2, 6]: 0.8922
- Difference [2, 16]: −0.17

Compound: Nc1cccc2c1CN(C1CCC(=O)NC1=O)C2=O (stereo not shown) [Lenalidomide]
- Difference [1, 12]: −0.16
- Cholesterol-free [1, 13]: 1.032
- Complete [1, 14]: 0.8739
- Cholesterol-free media + simvastatin (0.04 μM) [2, 23]: 1.008
- Complete Media [2, 24]: 0.9958
- Difference [2, 25]: −0.01

Compound: c1ccc([C@H]2CN3CCSC3=N2)cc1 [Levamisole (hydrochloride)]
- Cholesterol-free [1, 3]: 1.001
- Complete [1, 17]: 1.665
- Difference [1, 18]: 0.66
- Cholesterol-free media + simvastatin (0.04 μM) [2, 26]: 1.301
- Complete Media [2, 27]: 0.9046
- Difference [2, 16]: −0.40

Compound: CC(=O)N[C@@H](CS)C(=O)O [Acetylcysteine]
- Difference [1, 20]: −0.64
- Cholesterol-free [1, 21]: 1.369
- Complete [1, 22]: 0.7324
- Cholesterol-free media + simvastatin (0.04 μM) [2, 5]: 1.145
- Complete Media [2, 6]: 0.9059
- Difference [2, 16]: −0.24
